According to ChEMBL document CHEMBL1201862, “PubChem BioAssay data set” (2004):
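Assay format: 96-well plates, 48-hour exposure. GI50: concentration for 50% inhibition of growth.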 Calls of active or inactive are those of the source. Rule as the data show it: active = GI50 up to about 1.1 µM and inactive = higher.

What was measured:
Assay in all cases: growth of human tumour cells (NCI), 48 h
[1] = system: HCT-15
[2] = system: OVCAR-5
[3] = system: CCRF-CEM
[4] = system: M14
[5] = system: COLO 205
[6] = system: UACC-62
[7] = system: 786-0
[8] = system: SF-295
[9] = system: MDA-N
[10] = system: K562
[11] = system: NCI-H23
[12] = system: SNB-19
[13] = system: DU-145
[14] = system: SK-OV-3
[15] = system: LOX IMVI
[16] = system: HL-60
[17] = system: HOP-62
[18] = system: U-251
[19] = system: HOP-92
[20] = system: OVCAR-3

Compound	GI50 [1] [µM]	GI50 [2]	GI50 [3]	GI50 [4]	GI50 [5]	GI50 [6]	GI50 [7]	GI50 [8]	GI50 [9]	GI50 [10]	GI50 [11]	GI50 [12]	GI50 [13]	GI50 [14]	GI50 [15]	GI50 [16]	GI50 [17]	GI50 [18]	GI50 [19]	GI50 [20]
Cc1cc(-c2nc3ccccc3s2)ccc1NS(=O)(=O)O	> 4.65	> 4.65 µM (inactive)	> 4.65 µM (inactive)	> 29.5 µM (inactive)	> 4.65 µM (inactive)	> 12.2 µM (inactive)	> 8.85 µM (inactive)	> 43.1 µM (inactive)	> 6.04 µM (inactive)	4.65 µM (inactive)	> 7.11 µM (inactive)	> 24.4 µM (inactive)	> 22.2 µM (inactive)	> 33.5 µM (inactive)	> 4.65 µM (inactive)	–	–	–	–	–
CC(=O)NNc1nc(C)c(C(/C=C/c2ccc3c(c2)OCO3)=N/NC(=O)c2ccncc2)s1	> 100	> 100 µM (inactive)	> 100 µM (inactive)	> 100 µM (inactive)	–	> 100 µM (inactive)	> 100 µM (inactive)	> 100 µM (inactive)	> 100 µM (inactive)	> 100 µM (inactive)	> 100 µM (inactive)	> 100 µM (inactive)	–	> 100 µM (inactive)	> 100 µM (inactive)	> 100 µM (inactive)	> 100 µM (inactive)	> 100 µM (inactive)	> 100 µM (inactive)	> 100 µM (inactive)
CCCNc1c(Cl)cc(Cl)c2[nH]c3ccccc3c(=O)c12	98.6	> 100 µM (inactive)	49.3 µM (inactive)	55.7 µM (inactive)	42 µM (inactive)	45.5 µM (inactive)	30.2 µM (inactive)	34.8 µM (inactive)	50.6 µM (inactive)	28.3 µM (inactive)	27.7 µM (inactive)	18.4 µM (inactive)	–	75.9 µM (inactive)	33.7 µM (inactive)	16.2 µM (inactive)	56.1 µM (inactive)	37.1 µM (inactive)	3.42 µM (inactive)	48.2 µM (inactive)
c1ccc(CSc2nc(N3CCCCC3)c3cn[nH]c3n2)cc1	33.2	27.9 µM (inactive)	44 µM (inactive)	19.8 µM (inactive)	23 µM (inactive)	15.4 µM (inactive)	25.2 µM (inactive)	24.9 µM (inactive)	–	40.3 µM (inactive)	26.4 µM (inactive)	25.2 µM (inactive)	30.3 µM (inactive)	36.6 µM (inactive)	21 µM (inactive)	13.3 µM (inactive)	17.1 µM (inactive)	19.1 µM (inactive)	21.3 µM (inactive)	24.5 µM (inactive)
CC(=O)O[C@@H]1O[Si](C(C)(C)C)(C(C)(C)C)[C@H](C)[C@H]1C	29.9	> 100 µM (inactive)	40.6 µM (inactive)	38.6 µM (inactive)	> 100 µM (inactive)	83.6 µM (inactive)	33.5 µM (inactive)	90.8 µM (inactive)	> 100 µM (inactive)	31.8 µM (inactive)	> 100 µM (inactive)	> 100 µM (inactive)	–	> 100 µM (inactive)	25.8 µM (inactive)	21.9 µM (inactive)	> 100 µM (inactive)	43.7 µM (inactive)	–	24 µM (inactive)
Cc1c(/C=N\NC(=S)N(C)CCN(C)C(=S)N/N=C\c2c(C)n(C)n(-c3ccccc3)c2=O)c(=O)n(-c2ccccc2)n1C	> 100	> 100 µM (inactive)	–	> 100 µM (inactive)	> 100 µM (inactive)	> 100 µM (inactive)	> 100 µM (inactive)	> 100 µM (inactive)	–	–	> 100 µM (inactive)	> 100 µM (inactive)	> 100 µM (inactive)	> 100 µM (inactive)	–	–	> 100 µM (inactive)	> 100 µM (inactive)	> 100 µM (inactive)	> 100 µM (inactive)
COP1(=O)OCc2cnccc2O1 (configuration not stated)	> 100	> 100 µM (inactive)	–	> 100 µM (inactive)	> 100 µM (inactive)	> 100 µM (inactive)	> 100 µM (inactive)	> 100 µM (inactive)	> 100 µM (inactive)	> 100 µM (inactive)	> 100 µM (inactive)	> 100 µM (inactive)	–	> 100 µM (inactive)	> 100 µM (inactive)	–	> 100 µM (inactive)	> 100 µM (inactive)	–	> 100 µM (inactive)
COc1cc(Br)c(OC)c2c(OC)cc(C)cc12	> 100	> 100 µM (inactive)	42.5 µM (inactive)	64.7 µM (inactive)	> 100 µM (inactive)	> 100 µM (inactive)	75.7 µM (inactive)	> 100 µM (inactive)	–	67 µM (inactive)	> 100 µM (inactive)	> 100 µM (inactive)	> 100 µM (inactive)	> 100 µM (inactive)	> 100 µM (inactive)	14.7 µM (inactive)	> 100 µM (inactive)	> 100 µM (inactive)	–	> 100 µM (inactive)
O=S(=O)(N/N=C\c1c2ccccc2[n+]([O-])c2ccccc12)c1ccc(Cl)cc1	> 100	> 100 µM (inactive)	> 100 µM (inactive)	> 100 µM (inactive)	> 100 µM (inactive)	> 100 µM (inactive)	43.5 µM (inactive)	66.4 µM (inactive)	–	48.2 µM (inactive)	85.5 µM (inactive)	53.3 µM (inactive)	–	> 100 µM (inactive)	> 100 µM (inactive)	> 100 µM (inactive)	80 µM (inactive)	94.4 µM (inactive)	> 100 µM (inactive)	> 100 µM (inactive)
O=C(O)c1ccc(Nc2nc3ccc(C(F)(F)F)cc3nc2-c2ccccc2)cc1	18.6	78 µM (inactive)	36.1 µM (inactive)	24 µM (inactive)	–	14.6 µM (inactive)	37.7 µM (inactive)	48 µM (inactive)	47.6 µM (inactive)	45.2 µM (inactive)	48 µM (inactive)	52.2 µM (inactive)	> 10 µM (inactive)	–	40.4 µM (inactive)	20.6 µM (inactive)	43 µM (inactive)	31.4 µM (inactive)	–	17.9 µM (inactive)
O=C1C(Cl)=C(Cl)C(=O)N1c1ccc(Cl)c(Cl)c1Cl	31.1	> 100 µM (inactive)	21.7 µM (inactive)	52.7 µM (inactive)	29.9 µM (inactive)	30.5 µM (inactive)	44.5 µM (inactive)	> 100 µM (inactive)	–	30.5 µM (inactive)	61.8 µM (inactive)	57.8 µM (inactive)	–	> 100 µM (inactive)	69 µM (inactive)	24.3 µM (inactive)	> 100 µM (inactive)	> 100 µM (inactive)	24.7 µM (inactive)	41.6 µM (inactive)
Cc1cc(C)c2c(c1C)CN1CN2Cc2c(C)c(C)cc(C)c21	20.4	> 100 µM (inactive)	> 100 µM (inactive)	> 100 µM (inactive)	45.6 µM (inactive)	> 100 µM (inactive)	> 100 µM (inactive)	> 100 µM (inactive)	–	8.75 µM (inactive)	6.84 µM (inactive)	< 0.01 µM (active)	–	> 100 µM (inactive)	> 100 µM (inactive)	11.4 µM (inactive)	> 100 µM (inactive)	5.18 µM (inactive)	67.1 µM (inactive)	18.9 µM (inactive)
CC(=O)[C@@H]1[C@@H](OC(=O)CCC(C)COC2OC(CO)C(O)C(O)C2O)C[C@H]2[C@@H]3CC=C4C[C@@H](OC5OC(CO)C(OC6OC(C)C(O)C(O)C6O)C(O)C5OC5OC(C)C(O)C(O)C5O)CC[C@]4(C)[C@H]3CC[C@]12C (some centres not stated)	–	> 100 µM (inactive)	> 100 µM (inactive)	> 100 µM (inactive)	> 100 µM (inactive)	> 100 µM (inactive)	> 100 µM (inactive)	> 100 µM (inactive)	> 100 µM (inactive)	> 100 µM (inactive)	> 100 µM (inactive)	> 100 µM (inactive)	> 100 µM (inactive)	> 100 µM (inactive)	> 100 µM (inactive)	–	> 100 µM (inactive)	> 100 µM (inactive)	–	> 100 µM (inactive)
O=C(CNc1cccc([N+](=O)[O-])c1)Nn1c(-c2ccccc2)nc2ccccc2c1=O	0.419	1.77 µM (inactive)	0.316 µM (active)	–	1.43 µM (inactive)	0.212 µM (active)	0.399 µM (active)	1.58 µM (inactive)	–	0.528 µM (active)	0.653 µM (active)	2.11 µM (inactive)	2.38 µM (inactive)	0.573 µM (active)	0.221 µM (active)	0.422 µM (active)	1.97 µM (inactive)	1.05 µM (active)	–	2.38 µM (inactive)
CC1(C)OC(C[C@]2(C#N)C[C@H](CCl)OC(C)(C)O2)C[C@@H](C[C@]2(C#N)C[C@H](CCl)OC(C)(C)O2)O1 (some centres not stated)	> 100	> 100 µM (inactive)	> 100 µM (inactive)	> 100 µM (inactive)	> 100 µM (inactive)	> 100 µM (inactive)	> 100 µM (inactive)	> 100 µM (inactive)	–	> 100 µM (inactive)	> 100 µM (inactive)	> 100 µM (inactive)	–	> 100 µM (inactive)	> 100 µM (inactive)	> 100 µM (inactive)	> 100 µM (inactive)	> 100 µM (inactive)	> 100 µM (inactive)	> 100 µM (inactive)
COC[C@H](Cc1ccccc1)/N=C/c1ccccc1	> 100	> 100 µM (inactive)	> 100 µM (inactive)	> 100 µM (inactive)	> 100 µM (inactive)	> 100 µM (inactive)	> 100 µM (inactive)	> 100 µM (inactive)	–	> 100 µM (inactive)	> 100 µM (inactive)	> 100 µM (inactive)	> 100 µM (inactive)	> 100 µM (inactive)	> 100 µM (inactive)	–	> 100 µM (inactive)	> 100 µM (inactive)	–	–
